# Assays:
# S. aureus CC398 = experiment: MIC, serial dilution method (CLSI); type: cell-based, Staphylococcus aureus; conditions: Staphylococcus aureus, MRSA, 24 h; read-out: MIC
# Procedure: (§1) These inoculums were each in diluted 1:100 in Müller Hinton (MH) broth (Sigma, Copenhagen, Denmark). From the diluted inoculums 100 μl was transferred to each well in a 96-well plate and mixed with the compound to be MIC determined. The plate was incubated for 24 hours at 37° C. (without shaking). The MIC value was determined as the lowest concentration in which no bacterial growth could be visually detected. All MIC determinations were done in duplicates. […] Since all derivatives are new, no control strains (with reference MIC values) were available.
# S. aureus USA300 = experiment: MIC, serial dilution method (CLSI); type: cell-based, Staphylococcus aureus; conditions: Staphylococcus aureus, USA300, 24 h; read-out: MIC
# Procedure: as §1
# E. faecalis = experiment: MIC, serial dilution method (CLSI); type: cell-based, Enterococcus faecalis; conditions: Enterococcus faecalis, 24 h; read-out: MIC
# Procedure: as §1
# Bacillus cereus = experiment: MIC, serial dilution method (CLSI); type: cell-based; conditions: 24 h, read-out: MIC
# Procedure: as §1
# Streptococcus equi = experiment: MIC, serial dilution method (CLSI); type: cell-based; conditions: 24 h, read-out: MIC
# Procedure: as §1
# Listeria monocytogenes = experiment: MIC, serial dilution method (CLSI); type: cell-based; conditions: 24 h, read-out: MIC
# Procedure: as §1
# Salmonella enteritidis = experiment: MIC, serial dilution method (CLSI); type: cell-based; conditions: Salmonella enterica, ENTERITIDIS, 24 h; read-out: MIC
# Procedure: as §1
# E. faecium = experiment: MIC, serial dilution method (CLSI); type: cell-based, Enterococcus faecium; conditions: Enterococcus faecium, 24 h; read-out: MIC
# Procedure: as §1
# E. coli APEC O2 = experiment: MIC, serial dilution method (CLSI); type: cell-based, Escherichia coli; conditions: Escherichia coli, APECO2, 24 h; read-out: MIC
# Procedure: as §1
# IPEC-J2 MDR1 cells = experiment: Apical to basolateral transport across IPEC-J2 MDR1 cell monolayers; type: in vitro ADME
# Procedure: To assess the permeability of the compounds, the apical to basolateral flux/permeability of different experimental compounds across monolayers of IPEC-J2 MDR1 cells seeded and cultured on Transwell supports was investigated.
# The compounds were dissolved in ultra pure water (MilliQ) to a concentration of 1 mM and further diluted in HBSS supplemented with 0.05% BSA and 10 mM HEPES, pH 7.4 to a final concentration of 10 μM.
# For transport experiments, IPEC-J2 cells were seeded onto to permeable supports (T12, Corning cci-3401) and cultured for 15-17 days. Culturemedium was changed every other day in both the apical and basolateral chamber. On the day of transport, the cells were equilibrated to ambient temperatures and the transepithelial electrical resistance (TEER) was measured across the cell monolayers. Subsequently, the cell layers were washed twice with HBSS and the TEER was measured again. The transport experiment was started by replacing the HBSS in the apical chamber with HBSS solutions of the four experimental compounds. Over a period of two hours samples of 100 μL where taken from the basolateral chamber at t=15, 30, 45, 60, 90 and 120 minutes. All samples were stored at −20° C. until analysis by means of HPLC-MS. All four compounds were tested in triplicate. After the transport study was stopped, the cell layers were washed twice with HBSS and the TEER was measured.
# [1] = tested on: Staphylococus pseudintermedius; experiment: MIC, serial dilution method (CLSI); type: cell-based, Staphylococcus pseudintermedius; conditions: Staphylococcus pseudintermedius, 24 h; read-out: MIC
# Procedure: as §1
# Escherichia coli ESBL10 = experiment: MIC, serial dilution method (CLSI); also: values in mg/L; type: cell-based; conditions: E. coli ESBL10, Tetracycline resistant; duplicates a/b
# Procedure: as §1
# Escherichia coli E4 = experiment: MIC, serial dilution method (CLSI); also: values in mg/L; type: cell-based; conditions: E. coli E4, ESBL; duplicates a/b
# Procedure: as §1
# Escherichia coli ESBL1 = experiment: MIC, serial dilution method (CLSI); also: values in mg/L; type: cell-based; conditions: E. coli ESBL1, Tetracycline resistant; duplicates a/b
# Procedure: as §1
# Escherichia coli ESBL19 = experiment: MIC, serial dilution method (CLSI); also: values in mg/L; type: cell-based; conditions: E. coli ESBL19, Tetracycline resistant; duplicates a/b
# Procedure: as §1
# Escherichia coli ESBL37 = experiment: MIC, serial dilution method (CLSI); also: values in mg/L; type: cell-based; conditions: E. coli ESBL37, Tetracycline resistant; duplicates a/b
# Procedure: as §1
# Escherichia coli ESBL28 = experiment: MIC, serial dilution method (CLSI); also: values in mg/L; type: cell-based; conditions: E. coli ESBL28, Tetracycline resistant; duplicates a/b
# Procedure: as §1
# Escherichia coli E24 = experiment: MIC, serial dilution method (CLSI); also: values in mg/L; type: cell-based; conditions: E. coli E24, ESBL; duplicates a/b
# Procedure: as §1
# Escherichia coli E5 = experiment: MIC, serial dilution method (CLSI); also: values in mg/L; type: cell-based; conditions: E. coli E5, ESBL; duplicates a/b
# Procedure: as §1
# Escherichia coli E6 = experiment: MIC, serial dilution method (CLSI); also: values in mg/L; type: cell-based; conditions: E. coli E6, ESBL; duplicates a/b
# Procedure: as §1
# Escherichia coli ESBL46 = experiment: MIC, serial dilution method (CLSI); also: values in mg/L; type: cell-based; conditions: E. coli ESBL46, Tetracycline resistant; duplicates a/b
# Procedure: as §1
# Escherichia coli E38 = experiment: MIC, serial dilution method (CLSI); also: values in mg/L; type: cell-based; conditions: E. coli E38, ESBL; duplicates a/b
# Procedure: as §1
# [2] = tested on: Staphylococcus epidermidis; experiment: MIC and MBC determination; type: cell-based; conditions: Multiresistant clinical isolate
# Procedure: (§2) MBC-value defines the antibiotic activities by the lowest concentration of the compound needed to kill at least 99.9% of the bacteria, also known as minimum bactericidal concentration (MBC) value.
# (§3) The MIC for each compound for each bacteria strain was determined by the serial dilution method following the CLSI guidelines (CLSI Clinical and Laboratory Standards Institute: Performance Standards for Antimicrobial Susceptibility Testing: […] M100-S25. Wayne, Pa., USA; 2015.) All compounds were diluted in autoclaved H2O and stored at 4° C. […] Bacterial inoculums were prepared by inoculating 9 ml of H2O with bacterial colonies from agar plate (Oxoid, Roskilde Denmark) supplemented with bovine blood to a final yield a final density of 10^8 colony forming unit (CFU)/mL using a Sensititre™ Nephelometer (Thermo Scientific, Roskilde, Denmark). These inoculums were each in diluted 1:100 in Müller Hinton (MH) broth (Sigma, Copenhagen, Denmark). From the diluted inoculums 100 μl was transferred to each well in a 96-well plate and mixed with the compound to be MIC determined. The plate was incubated for 24 hours at 37° C. (without shaking). The MIC value was determined as the lowest concentration in which no bacterial growth could be visually detected. All MIC determinations were done in duplicates. […] Since all derivatives are new, no control strains (with reference MIC values) were available.
# Cutibacterium acnes = experiment: MIC and MBC determination; type: cell-based; conditions: Multiresistant clinical isolate
# Procedure: as §2, §3
MIC (S. aureus CC398),MIC (S. aureus USA300),MIC (E. faecalis),MIC (Bacillus cereus),MIC (Streptococcus equi),MIC (Listeria monocytogenes),MIC (Salmonella enteritidis),MIC (E. faecium),MIC (E. coli APEC O2),permeability across IPEC-J2 MDR1 cell monolayers (IPEC-J2 MDR1 cells),MIC [1],Compound,other results
4 µg/mL,2 µg/mL,8 µg/mL,2 µg/mL,2 µg/mL,2 µg/mL,256 µg/mL,8 µg/mL,256 µg/mL,low,2 µg/mL,"CC[N+]1(C)CCCCC1CCN1c2ccccc2Sc2ccc(SC)cc21.[Br-] (centres unmarked) [Compound S25, 1-ethyl-1-methyl-2-(2-(2-(methylthio)-10H-phenothiazin-10-yl)ethyl)piperidin-1-ium bromide]",
2 µg/mL,2 µg/mL,4 µg/mL,2 µg/mL,2 µg/mL,2 µg/mL,64 µg/mL,2 µg/mL,64 µg/mL,low,4 µg/mL,"CCCCC[N+]1(C)CCCCC1CCN1c2ccccc2Sc2ccc(SC)cc21.[Br-] (centres unmarked) [Compound S28, 1-methyl-2-(2-(2-(methylthio)-10H-phenothiazin-10-yl)ethyl)-1-pentylpiperidin-1-ium bromide]",

# The next lines start with the compound.
Compound,MIC (S. aureus CC398),MIC (S. aureus USA300),MIC (E. faecalis),MIC (Bacillus cereus),MIC (Streptococcus equi),MIC (Listeria monocytogenes),MIC (Salmonella enteritidis),MIC (E. faecium),MIC (E. coli APEC O2),permeability across IPEC-J2 MDR1 cell monolayers (IPEC-J2 MDR1 cells),MIC [1],other results
"CSc1ccc2c(c1)N(CCC1CCCC[N+]1(C)CCC(C)C)c1ccccc1S2.[Br-] (centres unmarked) [Compound S27, 1-isopentyl-1-methyl-2-(2-(2-(methylthio)-10H-phenothiazin-10-yl)ethyl)piperidin-1-ium bromide]",2 µg/mL,2 µg/mL,4 µg/mL,4 µg/mL,2 µg/mL,2 µg/mL,128 µg/mL,4 µg/mL,128 µg/mL,low,2 µg/mL,
"CN(C)CCCN1c2ccccc2Sc2ccc(Cl)cc21.Cl [Compound S1, 3-(2-chloro-10H-phenothiazin-10-yl)-N,N-dimethylpropan-1-amine hydrochloride, reference compound]",32 µg/mL,64 µg/mL,64 µg/mL,64 µg/mL,16 µg/mL,32 µg/mL,64 µg/mL,32 µg/mL,64 µg/mL,,32 µg/mL,MIC (Escherichia coli ESBL10): 64/64; MIC (Escherichia coli E4): 64/64; MIC (Escherichia coli ESBL1): 32/64; MIC (Escherichia coli ESBL19): 32/32; MIC (Escherichia coli ESBL37): 32/32; MIC (Escherichia coli ESBL28): 32/32; MIC (Escherichia coli E24): 64/32; MIC (Escherichia coli E5): 32/32; MIC (Escherichia coli E6): 32/32; MIC (Escherichia coli ESBL46): 32/32; MIC (Escherichia coli E38): 64/32
"CCCCCCCCCCCC[N+](C)(C)C(C)CN1c2ccccc2Sc2ccccc21.[Br-] (centres unmarked) [Compound S18, N-(1-(10H-phenothiazin-10-yl)propan-2-yl)-N,N-dimethyldodecan-1-aminium bromide]",0.25 µg/mL,0.5 µg/mL,0.5 µg/mL,0.25 µg/mL,1 µg/mL,0.25 µg/mL,64 µg/mL,0.25 µg/mL,64 µg/mL,,0.25 µg/mL,MBC [2]: 0.25 µg/mL; MIC [2]: 0.25 µg/mL; MBC (Cutibacterium acnes): 0.5 µg/mL; MIC (Cutibacterium acnes): 0.5 µg/mL

# From US20220313656A1, “NEW CLASS OF ANTIBIOTICS HAVING LOW MIC-VALUES TOWARDS DIFFERENT STRAINS OF BACTERIA” (priority 2019, published 2022)
